From the NIST ThermoML archive (doi:10.1016/j.fluid.2014.09.014)

Test: refractive index (other wavelength) (dimensionless); xn = mol fraction of the nth substance listed
Settings: 101 kPa, Liquid, Standard Abbe refractometry

CC(C)OC(C)C [diisopropyl ether] + CO
refractive index
Settings	Wavelength=40.47 nm	Wavelength=435.8 nm	Wavelength=486.1 nm	Wavelength=546.1 nm	Wavelength=587.6 nm	Wavelength=589.3 nm	Wavelength=632.8 nm	Wavelength=644 nm	Wavelength=706.5 nm
313.15 K, x2 = 0	–	–	–	–	–	1.35694	1.35572	1.35543	1.35401
313.15 K, x2 = 0.0423	–	–	–	–	–	1.35688	1.35563	1.35534	1.35395
313.15 K, x2 = 0.0424	–	–	–	–	–	1.3569	1.35568	1.3554	1.35398
313.15 K, x2 = 0.082	–	–	–	–	–	1.35685	1.35562	1.35532	1.35392
313.15 K, x2 = 0.0822	–	–	–	–	–	1.35704	1.35581	1.35552	1.35411
313.15 K, x2 = 0.1171	–	–	–	–	–	1.3569	1.35567	1.35538	1.35398
313.15 K, x2 = 0.1271	–	–	–	–	–	1.35691	1.35566	1.35538	1.35399
313.15 K, x2 = 0.1827	–	–	–	–	–	1.35671	1.35548	1.35518	1.35378
313.15 K, x2 = 0.2162	–	–	–	–	–	1.35656	1.35535	1.35505	1.35364
313.15 K, x2 = 0.251	–	–	–	–	–	1.35622	1.35489	1.3546	1.35322
313.15 K, x2 = 0.3298	–	–	–	–	–	1.35621	1.35494	1.35463	1.35329
313.15 K, x2 = 0.3577	–	–	–	–	–	1.3559	1.35417	1.35388	1.35251
313.15 K, x2 = 0.4497	–	–	–	–	–	1.35414	1.35292	1.35264	1.35124
313.15 K, x2 = 0.4525	–	–	–	–	–	1.35454	1.35331	1.35302	1.35165
313.15 K, x2 = 0.522	–	–	–	–	–	1.35241	1.3512	1.35091	1.34954
313.15 K, x2 = 0.5543	–	–	–	–	1.3516	1.35155	1.35036	1.35008	–
313.15 K, x2 = 0.609	–	–	–	–	1.34934	1.34929	1.3481	1.34783	1.34648
313.15 K, x2 = 0.6529	–	–	–	–	1.34786	1.34781	1.34667	1.34638	1.34501
313.15 K, x2 = 0.7504	–	–	–	–	1.34401	1.34396	1.34279	1.34252	1.34121
313.15 K, x2 = 0.804	–	–	–	–	1.33965	1.3396	1.33846	1.33821	1.33693
313.15 K, x2 = 0.807	–	–	–	–	1.33975	1.3409	1.33854	1.33829	1.33702
313.15 K, x2 = 0.8727	–	–	–	–	1.33626	1.33609	1.33509	1.33482	1.33354
313.15 K, x2 = 0.9233	–	–	–	–	1.3284	1.32835	1.32726	1.32702	1.32582
313.15 K, x2 = 0.9253	–	–	–	–	1.33006	1.33001	1.32891	1.32867	1.32745
313.15 K, x2 = 0.9527	–	–	–	–	1.32712	1.32708	1.32598	1.32574	1.32454
313.15 K, x2 = 0.9773	–	–	–	–	1.32383	1.32378	1.32372	1.32248	1.32131
313.15 K, x2 = 0.989	–	–	–	–	1.32263	1.32259	1.32154	1.3213	1.32103
313.15 K, x2 = 0.9964	–	–	–	–	1.32167	1.32163	1.32058	1.32034	1.31919
318.15 K, x2 = 0	1.36447	1.36157	1.35832	1.35556	1.35416	1.35411	1.3529	1.35259	1.3512
318.15 K, x2 = 0.0423	1.36444	1.36155	1.35829	1.35556	1.35414	1.35409	1.35285	1.35256	1.35117
318.15 K, x2 = 0.0424	1.3644	1.36152	1.35828	1.35551	1.3541	1.35405	1.35283	1.35253	1.35116
318.15 K, x2 = 0.082	1.36442	1.36153	1.35827	1.35551	1.35411	1.35406	1.35285	1.35255	1.35115
318.15 K, x2 = 0.0822	1.36413	1.36167	1.35838	1.35565	1.35423	1.35418	1.35295	1.35267	1.35128
318.15 K, x2 = 0.1171	1.36444	1.36159	1.35824	1.35556	1.35417	1.35412	1.3529	1.35259	1.3512
318.15 K, x2 = 0.1271	1.36445	1.36158	1.35832	1.35557	1.35415	1.3541	1.35289	1.3526	1.35122
318.15 K, x2 = 0.1827	1.36427	1.3614	1.35814	1.35541	1.354	1.35395	1.35273	1.35243	1.35105
318.15 K, x2 = 0.2162	1.36415	1.36132	1.35804	1.35526	1.35387	1.35382	1.35262	1.35233	–
318.15 K, x2 = 0.251	1.3636	1.36074	1.35753	1.35479	1.35338	1.35333	1.35213	1.35185	–
318.15 K, x2 = 0.3298	1.36408	1.36122	1.358	1.35528	1.35387	1.35292	1.35259	1.35229	1.35092
318.15 K, x2 = 0.3577	1.36296	1.36012	1.35689	1.35419	1.35274	1.35269	1.35147	1.3512	1.34984
318.15 K, x2 = 0.4497	1.36174	1.35893	1.35572	1.35303	1.35162	1.35157	1.35038	1.3501	1.34871
318.15 K, x2 = 0.4525	1.36248	1.35967	1.35631	1.3537	1.35228	1.35223	1.35098	1.35071	1.34936
318.15 K, x2 = 0.522	1.35999	1.3572	1.35398	1.35136	1.34995	1.34989	1.34869	1.34842	1.34709
318.15 K, x2 = 0.5543	1.35901	1.35624	1.35305	1.35042	1.34905	1.349	1.34779	1.34751	1.34616
318.15 K, x2 = 0.609	1.35666	1.35398	1.35085	1.34818	1.34684	1.3468	1.34566	1.34538	1.34405
318.15 K, x2 = 0.6529	1.35514	1.35244	1.34936	1.34672	1.34534	1.34529	1.34413	1.34386	1.34255
318.15 K, x2 = 0.7504	1.35095	1.34832	1.34529	1.34271	1.34138	1.34133	1.34018	1.3399	1.33858
318.15 K, x2 = 0.804	1.34473	1.34218	1.33919	1.33675	1.33541	1.33536	1.33421	1.33396	1.33271
318.15 K, x2 = 0.807	1.3465	1.34393	1.34094	1.33842	1.33709	1.33777	1.33591	1.33566	1.33438
318.15 K, x2 = 0.8727	1.34338	1.34082	1.3379	1.33543	1.33411	1.33406	1.33294	1.33269	1.33146
318.15 K, x2 = 0.9233	1.33515	1.33279	1.32983	1.32743	1.32614	1.3261	1.32501	1.32477	1.3236
318.15 K, x2 = 0.9253	1.33682	1.33442	1.33151	1.32907	1.32777	1.32772	1.32665	1.32641	1.32521
318.15 K, x2 = 0.9527	1.33369	1.33136	1.32842	1.32601	1.32474	1.32469	1.32362	1.32339	1.32222
318.15 K, x2 = 0.9773	1.33062	1.32834	1.32541	1.32301	1.32177	1.32173	1.32066	1.32042	1.3193
318.15 K, x2 = 0.989	1.32932	1.32708	1.3242	1.32177	1.32052	1.32048	1.31944	1.31921	1.31807
318.15 K, x2 = 0.9964	1.32844	1.32617	1.32328	1.3209	1.31967	1.31963	1.31859	1.31836	1.31724
